We go through one compound from article PMC7492691 (2020).

In assay [1] the test system is poly(dAdT)2 (DNA, polymer) AT. Kind of assay: UV-vis titration, Scatchard fit. The following applies: Na+ (sodium cacodylate, I = 0.05 M); pH 5, 25 °C; n fixed at 0.2; polynucleotide concentration in phosphates; per base.
For assay [2], the system named is poly(rA)–poly(rU) (RNA, polymer) A/U. Kind of assay: ITC, single set of sites fit. The following applies: Na+ (sodium cacodylate, I = 0.05 M); pH 5, 25 °C; polynucleotide concentration in phosphates; per base.
For assay [3] the test system is unchanged. Kind of assay: UV thermal denaturation, 260 nm. The settings on record: Na+ (sodium cacodylate, I = 0.05 M); pH 5; r = [4]/[polynucleotide] = 0.2; per base.
Assay [4] has as its system poly(dGdC)2 (DNA, polymer) GC. Kind of assay: UV-vis titration, Scatchard fit. The settings on record: Na+ (sodium cacodylate, I = 0.05 M); pH 5, 25 °C; n fixed at 0.2; polynucleotide concentration in phosphates; per base.
Assay [5] has as its system poly(dAdT)2 (DNA, polymer) AT. Kind of assay: ITC, two sets of sites fit. The following applies: Na+ (sodium cacodylate, I = 0.05 M); pH 5, 25 °C; site 1 of 2; polynucleotide concentration in phosphates; per base.
Assay [6] has as its system poly(dA)–poly(dT) (DNA, polymer) A/T. The assay is described as follows: UV thermal denaturation, 260 nm. The settings on record: Na+ (sodium cacodylate, I = 0.05 M); pH 5; r = [4]/[polynucleotide] = 0.1; per base.
Assay [7] deals with poly(dAdT)2 (DNA, polymer) AT. The assay is described as follows: UV thermal denaturation, 260 nm. The settings on record: Na+ (sodium cacodylate, I = 0.05 M); pH 5; r = [4]/[polynucleotide] = 0.1; per base.
Assay [8] has as its system poly(dA)–poly(dT) (DNA, polymer) A/T. Kind of assay: UV-vis titration, Scatchard fit. The following applies: Na+ (sodium cacodylate, I = 0.05 M); pH 5, 25 °C; n fixed at 0.2; polynucleotide concentration in phosphates; per base.
For assay [9], the system named is poly(rA)–poly(rU) (RNA, polymer) A/U. Kind of assay: UV-vis titration, Scatchard fit. The following applies: Na+ (sodium cacodylate, I = 0.05 M); pH 7, 25 °C; n fixed at 0.2; concentration in phosphates; log Ka 6.0 at pH 5; per base.

Regarding `N=C(N)NC(=O)c1ccc(C(=O)NCCCC[C@H](N)C(=O)NCCN2C(=O)c3ccc4c5c(ccc(c35)C2=O)C(=O)N(CCNC(=O)[C@@H](N)CCCCNC(=O)c2ccc(C(=O)NC(=N)N)[nH]2)C4=O)[nH]1`, the “log Ka” value was 5.8 in [1], 7.2 in [4], 6.4 in assay [8] and 4.5 in [9]. In addition, the “log Ka1” value in assay [2] is 6.9; in assay [5] it was 6.7. Also, the “∆Tm” value in assay [3] was found to be 6.8 ± 0.5 °C; in assay [6], 10.5 ± 0.5 °C; in assay [7] it was 10.0 ± 0.5 °C.
